Laboratory results reported in PubChem BioAssay AID248 (DTP/NCI, 2004).
Values joined by “and” are separate entries in the source; they are usually repeats but may differ in a detail not shown here. Identical values can stand only once. Toxic doses and inconclusive results are not listed. Cut-off read from the data, not from the text of the source: active = T/C of 150% or more; inactive = T/C below 125%. Square brackets hold non-standard residues; d marks the D form. Peptide text beside a SMILES is read from it. * marks the point of attachment. ξ: configuration not given here. Cbz = O=C(OCc1ccccc1)*; ξA = CC(N)C(=O)O

Tested on: L1210 leukemia ip in BDF1 mice, survival T/C
Experiment: NCI In Vivo Anticancer Drug Screen. Data for tumor model L1210 Leukemia (intraperitoneal) in B6D2F1 (BDF1) mice
Conditions: endpoint: mean survival time, higher = longer survival
How it was run: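 Mice bearing the transplanted tumor received compound or vehicle. Survival of the treated group was divided by that of the vehicle-treated control group to give the ratio.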

[1] = dose: 100.0 mg/kg/injection, schedule: Q01DX009 (ip), vehicle: Klucel (hydroxypropylcellulose) (HPC)
[2] = dose: 100.0 mg/kg/injection, schedule: Q04DX003 (ip), vehicle: Klucel (hydroxypropylcellulose) (HPC)
[3] = dose: 200.0 mg/kg/injection, schedule: Q01DX009 (ip), vehicle: Klucel (hydroxypropylcellulose) (HPC)
[4] = dose: 200.0 mg/kg/injection, schedule: Q04DX003 (ip), vehicle: Klucel (hydroxypropylcellulose) (HPC)
[5] = dose: 100.0 mg/kg/injection, schedule: Q04DX003 (ip), vehicle: saline
[6] = dose: 200.0 mg/kg/injection, schedule: Q04DX003 (ip), vehicle: saline
[7] = dose: 400.0 mg/kg/injection, schedule: Q04DX003 (ip), vehicle: saline
[8] = dose: 100.0 mg/kg/injection, schedule: Q01DX001 (ip), vehicle: carboxymethylcellulose (CMC)
[9] = dose: 200.0 mg/kg/injection, schedule: Q01DX001 (ip), vehicle: carboxymethylcellulose (CMC)
[10] = dose: 400.0 mg/kg/injection, schedule: Q01DX001 (ip), vehicle: carboxymethylcellulose (CMC)
[11] = dose: 100.0 mg/kg/injection, schedule: Q04DX002 (ip), vehicle: Klucel (hydroxypropylcellulose) (HPC)

Measured: T/C

COc1cc(C=Nc2cccc(C(F)(F)F)c2)ccc1O
inactive: [1] 95 % of control | [2] 102 % of control | [3] 86 % of control | [4] 98 % of control | dose: 400.0 mg/kg/injection, schedule: Q01DX009 (ip), vehicle: Klucel (hydroxypropylcellulose) (HPC) 101 % of control | dose: 400.0 mg/kg/injection, schedule: Q04DX003 (ip), vehicle: Klucel (hydroxypropylcellulose) (HPC) 104 % of control

CCCCCCCCCCCC[n+]1cccc2ccccc21
inactive: dose: 0.13 mg/kg/injection, schedule: Q01DX Z (ip), vehicle: carboxymethylcellulose (CMC) 112 % of control | dose: 0.25 mg/kg/injection, schedule: Q01DX Z (ip), vehicle: carboxymethylcellulose (CMC) 96 % of control | dose: 0.25 mg/kg/injection, schedule: Q04DX003 (ip), vehicle: saline 97 % of control | dose: 0.5 mg/kg/injection, schedule: Q01DX001 (ip), vehicle: saline 93 % of control | dose: 0.5 mg/kg/injection, schedule: Q01DX Z (ip), vehicle: carboxymethylcellulose (CMC) 98 % of control | dose: 0.5 mg/kg/injection, schedule: Q04DX003 (ip), vehicle: saline 92 % of control | dose: 0.7 mg/kg/injection, schedule: Q01DX009 (ip), vehicle: saline 92 % of control | dose: 1.0 mg/kg/injection, schedule: Q01DX001 (ip), vehicle: saline 88 % of control | dose: 1.0 mg/kg/injection, schedule: Q01DX015 (ip), vehicle: carboxymethylcellulose (CMC) 108 % of control | dose: 1.0 mg/kg/injection, schedule: Q01DX Z (ip), vehicle: carboxymethylcellulose (CMC) 98 % of control | dose: 1.0 mg/kg/injection, schedule: Q04DX003 (ip), vehicle: saline 108 % of control | dose: 1.4 mg/kg/injection, schedule: Q04DX003 (ip), vehicle: saline 94 % of control | dose: 2.0 mg/kg/injection, schedule: Q01DX015 (ip), vehicle: carboxymethylcellulose (CMC) 106 % of control

O=C1NCCNC1=O
inactive: [5] 101 % of control | [6] 100 % of control | [7] 105 % of control

COCn1cnc2c(ccn2C2OC(CO)C(O)C2O)c1=O (stereo unspecified)
inactive: dose: 50.0 mg/kg/injection, schedule: Q01DX001 (ip), vehicle: saline 104 % of control | dose: 100.0 mg/kg/injection, schedule: Q01DX001 (ip), vehicle: saline 93 % of control | dose: 200.0 mg/kg/injection, schedule: Q01DX001 (ip), vehicle: saline 106 % of control | dose: 400.0 mg/kg/injection, schedule: Q01DX001 (ip), vehicle: saline 106 % of control

CCCCCCC1N(Cc2ccccc2OC)CCCN1Cc1ccccc1OC
inactive: [8] 100 % of control | [9] 105 % of control | [10] 94 % of control

CC(S)c1ccc2c(c1)Cc1ccccc1-2 (stereo unspecified)
inactive: [8] 101 % of control | [9] 101 % of control | [10] 104 % of control

C[N+]1(CCC[N+]2(C)CC3CC=CCC3C2)CCOCC1 (stereo unspecified)
inactive: [5] 92 % of control | [6] 92 % of control | [7] 92 % of control

CCCCCSP(=S)(SCCCCC)c1ccccc1
inactive: dose: 100.0 mg/kg/injection, schedule: Q04DX002 (ip), vehicle: saline with Tween-80 99 % of control | dose: 200.0 mg/kg/injection, schedule: Q04DX002 (ip), vehicle: saline with Tween-80 105 % of control | dose: 400.0 mg/kg/injection, schedule: Q04DX002 (ip), vehicle: saline with Tween-80 99 % of control

Cc1cc(C)c2c(c1)CC2NC(=O)c1ccccc1 (stereo unspecified)
inactive: dose: 25.0 mg/kg/injection, schedule: Q04DX002 (ip), vehicle: Klucel (hydroxypropylcellulose) (HPC) 100 % of control | dose: 50.0 mg/kg/injection, schedule: Q04DX002 (ip), vehicle: Klucel (hydroxypropylcellulose) (HPC) 106 % of control | [11] 95 % of control

NC(CO)C(O)c1ccc(-c2ccccc2)cc1 (stereo unspecified)
inactive: dose: 75.0 mg/kg/injection, schedule: Q04DX003 (ip), vehicle: Klucel (hydroxypropylcellulose) (HPC) 108 % of control | dose: 100.0 mg/kg/injection, schedule: Q01DX001 (ip), vehicle: Klucel (hydroxypropylcellulose) (HPC) 94 % of control | dose: 150.0 mg/kg/injection, schedule: Q04DX003 (ip), vehicle: Klucel (hydroxypropylcellulose) (HPC) 106 % of control | dose: 200.0 mg/kg/injection, schedule: Q01DX001 (ip), vehicle: Klucel (hydroxypropylcellulose) (HPC) 92 % of control | dose: 300.0 mg/kg/injection, schedule: Q04DX003 (ip), vehicle: Klucel (hydroxypropylcellulose) (HPC) 101 % of control | dose: 400.0 mg/kg/injection, schedule: Q01DX001 (ip), vehicle: Klucel (hydroxypropylcellulose) (HPC) 92 % of control

CCCCOP(=O)(CCCC)OCCCC
inactive: dose: 12.5 mg/kg/injection, schedule: Q01DX009 (ip), vehicle: saline with Tween-80 103 % of control | dose: 12.5 mg/kg/injection, schedule: Q04DX003 (ip), vehicle: saline with Tween-80 86 % of control | dose: 25.0 mg/kg/injection, schedule: Q01DX009 (ip), vehicle: saline with Tween-80 92 % of control | dose: 25.0 mg/kg/injection, schedule: Q04DX003 (ip), vehicle: saline with Tween-80 104 % of control | dose: 50.0 mg/kg/injection, schedule: Q01DX009 (ip), vehicle: saline with Tween-80 92 % of control | dose: 50.0 mg/kg/injection, schedule: Q04DX003 (ip), vehicle: saline with Tween-80 93 % of control and 94 % of control

O=C1CN=C(c2ccccc2Cl)c2cc(Cl)ccc2N1
inactive: dose: 12.5 mg/kg/injection, schedule: Q01DX009 (ip), vehicle: Klucel (hydroxypropylcellulose) (HPC) 114 % of control | dose: 25.0 mg/kg/injection, schedule: Q01DX009 (ip), vehicle: Klucel (hydroxypropylcellulose) (HPC) 95 % of control | dose: 25.0 mg/kg/injection, schedule: Q04DX003 (ip), vehicle: Klucel (hydroxypropylcellulose) (HPC) 100 % of control | dose: 50.0 mg/kg/injection, schedule: Q01DX009 (ip), vehicle: Klucel (hydroxypropylcellulose) (HPC) 106 % of control | dose: 50.0 mg/kg/injection, schedule: Q04DX003 (ip), vehicle: Klucel (hydroxypropylcellulose) (HPC) 105 % of control | [1] 97 % of control | [2] 100 % of control | [3] 103 % of control | [4] 120 % of control

CC(NC(=O)CNC(=O)OCc1ccccc1)C(N)=O (stereo not drawn) (Cbz-Gly-[ξA]-NH2)
inactive: dose: 100.0 mg/kg/injection, schedule: Q04DX003 (ip), vehicle: saline with Tween-80 102 % of control | dose: 200.0 mg/kg/injection, schedule: Q04DX003 (ip), vehicle: saline with Tween-80 101 % of control | dose: 400.0 mg/kg/injection, schedule: Q04DX003 (ip), vehicle: saline with Tween-80 101 % of control

CCCCCNCCC[P+](c1ccccc1)(c1ccccc1)c1ccccc1
inactive: dose: 25.0 mg/kg/injection, schedule: Q04DX002 (ip), vehicle: saline 98 % of control | dose: 50.0 mg/kg/injection, schedule: Q04DX002 (ip), vehicle: saline 105 % of control | dose: 100.0 mg/kg/injection, schedule: Q04DX002 (ip), vehicle: saline 119 % of control

CNS(=O)(=O)c1ccccc1C=C(c1ccccc1)c1ccccc1
inactive: dose: 100.0 mg/kg/injection, schedule: Q01DX001 (ip), vehicle: steriod suspending solution 92 % of control | dose: 200.0 mg/kg/injection, schedule: Q01DX001 (ip), vehicle: steriod suspending solution 114 % of control | dose: 400.0 mg/kg/injection, schedule: Q01DX001 (ip), vehicle: steriod suspending solution 102 % of control

CCCOC(CN)C(Cl)(Cl)Cl (stereo unspecified)
inactive: dose: 50.0 mg/kg/injection, schedule: Q01DX009 (ip), vehicle: saline 98 % of control | dose: 100.0 mg/kg/injection, schedule: Q01DX009 (ip), vehicle: saline 96 % of control | [5] 97 % of control | dose: 200.0 mg/kg/injection, schedule: Q01DX009 (ip), vehicle: saline 96 % of control | [6] 92 % of control

C=C1CC2(OC1=O)C(=O)N(C)c1ccccc12 (stereo unspecified)
inactive: dose: 25.0 mg/kg/injection, schedule: Q04DX002 (ip), vehicle: gum acacia 101 % of control | dose: 50.0 mg/kg/injection, schedule: Q04DX002 (ip), vehicle: gum acacia 97 % of control

O=C1c2ccccc2C(=O)N1C1CCCCCCC1
inactive: [11] 94 % of control | dose: 200.0 mg/kg/injection, schedule: Q04DX002 (ip), vehicle: Klucel (hydroxypropylcellulose) (HPC) 100 % of control | dose: 400.0 mg/kg/injection, schedule: Q04DX002 (ip), vehicle: Klucel (hydroxypropylcellulose) (HPC) 97 % of control
